{
  "source": "patent US8546079B2",
  "about": "“Reporter gene construct, assay kit and detection method” (Kabushiki Kaisha Toshiba, priority 2010, dated 2013)",
  "system": "enhancer region of cytochrome 1A1 gene",
  "experiment": "Detection of nitrogen monoxide (NO.) having responded to carcinogenicity by iNOS vector pXRE-SV40-NOS2 (DAF2-DA fluorescence)",
  "type": "cell-based, mouse",
  "settings": "Neuro2a transfected with pXRE-SV40-NOS2; 1.0 μM, 24 hours; compared with DMSO; inverted fluorescence microscope (FIG. 3A, 3B)",
  "description": "An enhancer region responsive to a carcinogenic substance was incorporated in the iNOS vector: pSV40-NOS2. The enhancer region of cytochrome 1A1 gene responsive to a carcinogenic substance (benzopyrene) (SEQ ID NO: 4) was amplified by PCR from a mouse genome. The 5′ terminal of the amplified enhancer region was phosphorylated with T4 polynucleotide kinase, and ligated using T4 ligase to pSV40-NOS2 having been digested with restriction enzyme Sma I and having its 5′ terminal dephosphorylated with alkali phosphatase, thereby obtaining pXRE-SV40-NOS2 (FIG. 2). Using this vector, the correlation of the activation of the enhancer region by a carcinogenic substance with the amount of nitrogen monoxide (NO.) synthesized by iNOS was studied.\nMouse neuroblastoma Neuro2a (American Type Cell Culture) was seeded on a 24-well plate at a density of 8.0×10^4 cells/well, and using DMEM/F12 medium (DF1:1 medium) supplemented with 10% fetal calf serum (FCS), cultured overnight in a 5% CO2 atmosphere at 37° C. […] Two hours later, the cells were washed with phosphate buffer (PBS) twice, and the fluorescence by the reaction product of DAF-2DA and nitrogen monoxide (NO.) (DAF-2T, excitation wavelength: 495 nm, fluorescence wavelength: 515 nm) was observed by means of an inverted fluorescence microscope.",
  "data": [
    {"smiles": "c1ccc2c(c1)c1cccc3ccc4cccc2c4c31", "note": "[benzopyrene]", "values": [
      {"measurement": "fluorescence by the reaction product of DAF-2DA and nitrogen monoxide (NO.)", "value": "induction of fluorescence"}
    ]}
  ]
}
